Reference: ChEMBL document CHEMBL5335870, “Discovery of Hepatitis B Virus Surface Antigen Suppressor GS-8873” (ACS Med Chem Lett, 2024)

Key:
[1] = MRT in Sprague-Dawley rat at 1 mg/kg, iv; assay type: ADME, organism-based; conditions: in vivo
[2] = Volume of distribution at steady state in Cynomolgus monkey at 0.4 mg/kg, iv; assay type: ADME, organism-based, Macaca fascicularis; conditions: in vivo, read-out: Vdss
[3] = Oral bioavailability in Cynomolgus monkey at 0.5 mg/kg; assay type: ADME, organism-based, Macaca fascicularis; conditions: in vivo
[4] = MRT in Cynomolgus monkey at 0.4 mg/kg, iv; assay type: ADME, organism-based, Macaca fascicularis; conditions: in vivo
[5] = Oral bioavailability in Beagle dog at 0.5 mg/kg; assay type: ADME, organism-based, Canis lupus familiaris; conditions: in vivo
Hepatitis B virus = assay: Antiviral activity against genotype D HBV infected in sodium taurocholate co-transporting polypeptide receptor-expressing stable HepG2 cell line assessed as suppression of HBsAg level incubated for 5 days by multiplex chemiluminescent MSD assay; assay type: functional, organism-based; conditions: HepG2, 120 h
[6] = AUC (0 to infinity) Beagle dog at 0.5 mg/kg, iv; assay type: ADME, organism-based, Canis lupus familiaris; parameters: dose 0.5 mg/kg, route iv; conditions: in vivo
[7] = AUC (0 to infinity) Cynomolgus monkey at 0.4 mg/kg, iv; assay type: ADME, organism-based, Macaca fascicularis; parameters: dose 0.4 mg/kg, route iv; conditions: in vivo
[8] = Volume of distribution at steady state in Beagle dog at 0.5 mg/kg, iv; assay type: ADME, organism-based, Canis lupus familiaris; conditions: in vivo, read-out: Vdss
[9] = Half life in Cynomolgus monkey at 0.4 mg/kg, iv; assay type: ADME, organism-based, Macaca fascicularis; conditions: in vivo
[10] = Half life in Beagle dog at 0.5 mg/kg, iv; assay type: ADME, organism-based, Canis lupus familiaris; conditions: in vivo
[11] = MRT in Beagle dog at 0.5 mg/kg, iv; assay type: ADME, organism-based, Canis lupus familiaris; conditions: in vivo
[12] = Half life in Sprague-Dawley rat at 1 mg/kg, iv; assay type: ADME, organism-based; conditions: in vivo
[13] = Clearance in Rhesus monkey at 0.5 mg/kg, iv; assay type: ADME, organism-based, Macaca mulatta; conditions: in vivo
[14] = AUC (0 to infinity) Sprague-Dawley rat at 1 mg/kg, iv; assay type: ADME, organism-based; parameters: dose 1 mg/kg, route iv; conditions: in vivo
[15] = Oral bioavailability in Sprague-Dawley rat at 3 mg/kg; assay type: ADME, organism-based; conditions: in vivo
[16] = Clearance in Sprague-Dawley rat at 1 mg/kg, iv; assay type: ADME, organism-based; conditions: in vivo
[17] = AUC (0 to infinity) Rhesus monkey at 0.5 mg/kg, iv; assay type: ADME, organism-based, Macaca mulatta; parameters: dose 0.5 mg/kg, route iv; conditions: in vivo
[18] = Clearance in Cynomolgus monkey at 0.4 mg/kg, iv; assay type: ADME, organism-based, Macaca fascicularis; conditions: in vivo
[19] = Clearance in Sprague-Dawley rat at […], iv measured after 24 hrs by LC/MS/MS method; assay type: ADME, organism-based; conditions: in vivo
[20] = Oral bioavailability in Sprague-Dawley rat after 24 hrs by LC/MS/MS method; assay type: ADME, organism-based; conditions: in vivo
[21] = Half life in Rhesus monkey at 0.5 mg/kg, iv; assay type: ADME, organism-based, Macaca mulatta; conditions: in vivo
[22] = Volume of distribution at steady state in Rhesus monkey at 0.5 mg/kg, iv; assay type: ADME, organism-based, Macaca mulatta; conditions: in vivo, read-out: Vdss
[23] = Clearance in Beagle dog at 0.5 mg/kg, iv; assay type: ADME, organism-based, Canis lupus familiaris; conditions: in vivo
[24] = Volume of distribution at steady state in Sprague-Dawley rat at 1 mg/kg, iv; assay type: ADME, organism-based; conditions: in vivo, read-out: Vdss

COCCCOc1cc2c(cc1COC)-c1cc(=O)c(C(=O)O)cn1N1[C@@H]2CCC1(C)C
MRT [1]: 2.6 h | Vd [2]: 1.23 L/kg | bioavailability [3]: 91% | MRT [4]: 8.1 h | bioavailability [5]: 94% | EC50 (Hepatitis B virus): 4 nM | AUC(0-inf) [6]: 4.91 µM·h | AUC(0-inf) [7]: 5.93 µM·h | Vd [8]: 0.85 L/kg | half-life [9]: 6.7 h | half-life [10]: 5.1 h | MRT [11]: 3.6 h | half-life [12]: 2.5 h | clearance [13]: 3 mL/min/kg | AUC(0-inf) [14]: 8.44 µM·h | bioavailability [15]: 91% | clearance [16]: 4.5 mL/min/kg | AUC(0-inf) [17]: 6.41 µM·h | clearance [18]: 2.5 mL/min/kg | clearance [19]: 4.5 mL/min/kg | bioavailability [20]: 91% | half-life [21]: 5.5 h | Vd [22]: 1.14 L/kg | clearance [23]: 4 mL/min/kg | Vd [24]: 0.69 L/kg
